{"source": "paper PMC9317397", "about": "“Design and Synthesis of Hepatitis B Virus (HBV) Capsid Assembly Modulators and Evaluation of Their Activity in Mammalian Cell Model” (Pharmaceuticals, 2022)", "key": {"BHK-21 cells [1]": {"tested_on": "BHK-21 cells", "assay": "Cytopathic effect (cell morphology, proliferation, trypan blue) in non-infected BHK-21 cells", "format": "cell-based, hamster", "details": "24 h", "procedure": "To define HAP compound non-toxic concentrations for initial studies, non-infected BHK-21 cells were incubated with compounds at four different concentrations for 24 h (25 μM, 50 μM, 100 μM, and 200 μM), and the cytopathic effects were evaluated by analysis of cell morphology and proliferation changes. […] 1c, 1j, 1k and 4a, and 7b. The reference comp.\nThe cytopathic effect of the compounds was estimated by phase contrast microscopy and standard trypan blue staining, and the cells were counted using an automatic cell counter (Invitrogen). BHK-21 and HepG2.2.15 cells were incubated for 24 h with the studied compounds at […] (25, 50, 100, 150 and 200 μM) and the cell morphology was controlled under microscope to evaluate cytopathic effects (Table 1, the highest non-toxic concentration)."}, "[2]": {"target": "HBV capsid assembly (full-length HBc protein, genotype D1) (Hepatitis B virus genotype D subtype ayw, UniProt P03146, A80I/T33N/V74G)", "sequence (P03146 whole entry A80I/T33N/V74G, looked up)": "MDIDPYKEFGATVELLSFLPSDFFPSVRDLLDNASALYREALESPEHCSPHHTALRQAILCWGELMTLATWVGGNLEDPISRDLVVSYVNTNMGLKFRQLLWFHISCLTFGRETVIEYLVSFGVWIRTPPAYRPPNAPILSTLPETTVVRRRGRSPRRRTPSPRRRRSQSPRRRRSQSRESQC", "assay": "HBV capsid assembly in SFV1/HBc-infected HBc-producing BHK-21 cells, native agarose gel anti-HBc immunoblot", "format": "cell-based", "details": "HBc-producing BHK-21 cells; for Type of effect on HBV capsid assembly in dose-dependent experiments: 0.1–50 µM, 24 h (Figure 6); for Effect on Capsid Assembly / Effect on Capsid Assembly, Starting Concentration: 24 h, native agarose immunoblot"}, "HBV [3]": {"tested_on": "HBV", "details": "HepG2.2.15 cells; for HBV DNA, % from control: six days, secreted virion DNA"}, "HBV [4]": {"tested_on": "HBV", "assay": "microbe, parasite or virus in culture", "details": "Hepatitis B virus, HepG2.2.15, 144 h, read-out: EC50 (50% reduction of HBV DNA), HepG2.2.15 cells, six days, 0–20 µM"}, "primary hepatocytes": {"tested_on": "primary hepatocytes", "parameters": "method as in PMID 25921762", "details": "cited from earlier work"}, "[5]": {"target": "HBV capsids (HBc assembly products) (Hepatitis B virus genotype D subtype ayw, UniProt P03146, A80I/T33N/V74G)", "sequence (P03146 whole entry A80I/T33N/V74G, looked up)": "as above", "assay": "Electron microscopy of HBc assembly products purified from treated BHK-21 cells", "format": "cell-based", "details": "50 μM, 24 h, sucrose cushion pellet"}, "HepG2.2.15 cells": {"tested_on": "HepG2.2.15 cells", "assay": "MTT viability test in HepG2.2.15 cells (TC50)", "format": "cell-based, human", "details": "48 h, 0–200 µM", "method": "In order to compare the cytotoxicity of compounds 1d and 1e in HBV producing HepG2.2.15 cells, the toxic concentrations (TC50 values) were estimated (Figure 9B,C).\nIn order to calculate the median of the toxic concentration (TC50) of the compounds, 1.33 × 10^5 HepG2.2.15 cells per well were seeded into a 24-well plate. After 24 h, the cells were treated with the test compounds at different concentrations (0, 50, 100, 150, 200 μM) and incubated for 48 h at 37 °C. All experiments were carried out in three identical repeats and the coefficient of variation and standard deviation were calculated from at least two independent experiments.\nThe percent inhibition at each compound concentration was calculated by normalization of the signals to the signals from non-treated HepG2.2.15 cells. […] Data points and error bars represent the means and standard deviations from at least two independent experiments, respectively. Comparisons between data groups were performed using the unpaired t test, with p values < 0.05 being considered statistically significant."}, "BHK-21 cells [6]": {"tested_on": "BHK-21 cells", "assay": "MTT viability assay in BHK-21 cells", "format": "cell-based, hamster", "details": "6.125–200 µM, 24 h", "procedure": "BHK-21 cells were incubated with different concentrations (6.125, 12.25, 25, 50, 100, and 200 µM) of the respective compounds and the cell viability was calculated as a percentage from untreated cells (100%) (Figure 7). In general, the results confirmed the morphological observation of relatively low cytotoxicity for tested compounds at concentrations below 100 µM.\nAdditionally, cell viability was determined by tetrazolium salt-based assay using the Vybrant MTT Cell Proliferation kit (Thermo Fisher Scientific, Waltham, MA, USA) or more sensitive CCK-8 kit (Abcam). First, the cell numbers and protocol were optimized for BHK-21 and HepG2.2.15 cells, as indicated in the MTT assay kit or CCK-8 reagent manufacturer’s protocol, and standard curves with OD values were created and evaluated.\nIn order to evaluate the toxicity of selected HAP compounds in the medium, 1.3 × 10^4 BHK-21 were seeded per well in 96-well plates and treated with the studied compounds for 24 h at concentrations 6.125; 12.25; 25; 50; 100; and 200 μM. Control cells without HAP compounds and MTT-free cell media were included in the experiments. The MTT test was performed according to the full protocol version (Thermo Fisher Scientific)."}, "HBc protein": {"target": "HBc protein (Hepatitis B virus genotype D subtype ayw, UniProt P03146, A80I/T33N/V74G)", "sequence (P03146 whole entry A80I/T33N/V74G, looked up)": "as above", "assay": "Anti-HBc immunostaining and confocal microscopy of HBc-producing BHK-21 cells", "format": "cell-based", "details": "20 μM and 50 μM, 24 h"}}, "note": "“Also recorded” adds a separate entry of the source. Where two headings read alike, the source gives them in different places."}
{"smiles": "COC(=O)C1=C(C)NC(c2ncc(F)cc2F)=NC1c1ccc(F)cc1Cl", "note": "(centres unmarked) [1a, Bay 41-4109, reference compound]", "values": [{"measurement": "Concentration revealing cell toxicity signs", "setting": "BHK-21 cells [1]; BHK-21 cells", "value": 100, "unit": "µM"}, {"measurement": "The Highest Non-Toxic Concentration", "setting": "BHK-21 cells [1]; non-infected BHK-21 cells, no noticeable cytopathic effect", "value": 100, "unit": "µM"}, {"measurement": "Type of effect on HBV capsid assembly in dose-dependent experiments", "setting": "[2]", "value": "dose-dependent HBc signal decrease"}, {"measurement": "Effect on Capsid Assembly", "setting": "[2]", "value": "Dose dependent capsid signal decrease"}, {"measurement": "Effect on Capsid Assembly, Starting Concentration", "setting": "[2]", "value": 1, "unit": "µM"}, {"measurement": "HBV DNA, % from control", "setting": "HBV [3]; 10 µM", "value": 2.5, "unit": "%"}, {"measurement": "EC50", "setting": "HBV [4]", "value": 0.35, "unit": "µM"}, {"measurement": "Toxic concentration", "setting": "primary hepatocytes", "value": 5.06, "unit": "µM"}]}
{"smiles": "CCOCCOC(=O)C1=C(C)NC(c2ncc(F)cc2F)=NC1c1ccc(F)cc1Cl", "note": "(centres unmarked) [1d]", "values": [{"measurement": "Morphology of HBc assembly products by electron microscopy", "setting": "[5]", "value": "irregularly shaped structures that resembled capsids of the wrong size and incorrect symmetry, as well as the capsid aggregates"}, {"measurement": "TC50", "setting": "HepG2.2.15 cells", "value": 175, "unit": "µM"}, {"measurement": "Type of effect on HBV capsid assembly in dose-dependent experiments", "setting": "[2]", "value": "dose-dependent HBc products accumulation"}, {"measurement": "Effect on capsid production / mobility in initial test", "setting": "[2]; 1–50 μM, 24 h (Figure 5)", "value": "misfolding of the HBV capsid"}, {"measurement": "Effect on Capsid Assembly", "setting": "[2]", "value": "HBc accumulation, aggregates/or incorrect capsid structures"}, {"measurement": "Effect on Capsid Assembly, Starting Concentration", "setting": "[2]", "value": 5, "unit": "µM"}, {"measurement": "SI (TC50/EC50)", "setting": "HBV [3]", "value": 28}, {"measurement": "HBV DNA, % from control", "setting": "HBV [3]; 20 µM", "value": 6.5, "unit": "%"}, {"measurement": "Decrease in the amount of HBV virion release compared with control", "setting": "HBV [3]; Figure 8", "value": "≤ 93.5", "unit": "%"}, {"measurement": "Cell viability compared to untreated control", "setting": "BHK-21 cells [6]", "value": "did not demonstrate the difference in cell viability"}, {"measurement": "EC50", "setting": "HBV [4]", "value": 6.24, "unit": "µM"}, {"measurement": "Intracellular localization of HBc", "setting": "HBc protein", "value": "speckled dot pattern of HBc distribution in the cytoplasm; also recorded: blocked the intranuclear transport of HBc protein"}]}
